Measured values as given in ChEMBL document CHEMBL2021792, “Tetrahydro-naphthols as orally available TRPV1 inhibitors” (Bioorg Med Chem Lett, 2012).

Legend:
[1] = molecular target: Transient receptor potential cation channel subfamily V member 1 (Homo sapiens, UniProt Q8NER1); test: Antagonist activity at human TRPV1 expressed in CHOluc9aeq cells assessed as inhibition of capsaicin-stimulated response by aequorin and CRE-lucifearase reporter gene assay; assay type: functional, cell-based
[2] = AUC in rat at 1 mg/kg, po; assay type: ADME, organism-based; design: dose 1 mg/kg, route oral; conditions: plasma
[3] = Oral bioavailability in rat at 1 mg/kg; assay type: ADME, organism-based; conditions: in vivo
Plasma = test: Unbound fraction in rat plasma; assay type: ADME, cell-free

Transient receptor potential cation channel subfamily V member 1, sequence (Q8NER1 whole entry): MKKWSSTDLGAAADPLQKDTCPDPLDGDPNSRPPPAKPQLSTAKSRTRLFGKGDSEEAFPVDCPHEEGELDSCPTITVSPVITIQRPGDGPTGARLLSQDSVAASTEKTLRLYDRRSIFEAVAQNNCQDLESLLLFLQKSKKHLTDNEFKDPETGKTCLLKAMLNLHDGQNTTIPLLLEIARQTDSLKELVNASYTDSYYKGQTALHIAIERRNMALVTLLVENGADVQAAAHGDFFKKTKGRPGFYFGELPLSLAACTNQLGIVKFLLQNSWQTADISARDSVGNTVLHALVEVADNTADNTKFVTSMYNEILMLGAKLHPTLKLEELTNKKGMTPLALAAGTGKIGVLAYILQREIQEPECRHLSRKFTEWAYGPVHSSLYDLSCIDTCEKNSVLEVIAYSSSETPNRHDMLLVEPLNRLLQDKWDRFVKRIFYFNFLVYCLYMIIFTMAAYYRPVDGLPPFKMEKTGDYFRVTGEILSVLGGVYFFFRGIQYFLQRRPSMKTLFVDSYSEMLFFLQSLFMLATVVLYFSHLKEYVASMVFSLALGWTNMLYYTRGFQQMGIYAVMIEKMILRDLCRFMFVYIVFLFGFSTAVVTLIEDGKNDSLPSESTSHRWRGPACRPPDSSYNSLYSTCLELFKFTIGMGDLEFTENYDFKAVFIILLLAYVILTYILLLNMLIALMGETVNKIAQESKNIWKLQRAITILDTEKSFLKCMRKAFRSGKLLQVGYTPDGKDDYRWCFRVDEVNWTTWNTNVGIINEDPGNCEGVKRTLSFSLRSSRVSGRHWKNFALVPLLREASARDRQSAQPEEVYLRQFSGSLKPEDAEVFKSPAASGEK

Row | Compound | IC50 [1] | AUC [2] | other results
1 | O=C(Nc1ccc(Cl)c(C(F)(F)F)c1)Nc1cccc2nn[nH]c12 | 180 nM | – | –
2 | O=C(Nc1ccc(Cl)c(C(F)(F)F)c1)Nc1cccc2c1CC(O)CC2 (racemic) | – | 650 ng·h/mL | bioavailability [3]: 74%; Fu (Plasma): 0.28%
3 | NS(=O)(=O)c1ccccc1NC(=O)Nc1ccc(Cl)c(C(F)(F)F)c1 | > 1000 nM | – | –
4 | CS(=O)(=O)Nc1ccc2cccc(NC(=O)Nc3ccc(Cl)c(C(F)(F)F)c3)c2c1 | > 1000 nM | 709 ng·h/mL | –
5 | CC(=O)Nc1ccc2cccc(NC(=O)Nc3ccc(Cl)c(C(F)(F)F)c3)c2c1 | 530 nM | 1590 ng·h/mL | –
6 | O=C(Nc1cccc(CCO)c1)Nc1ccc(Cl)c(C(F)(F)F)c1 | 230 nM | 75 ng·h/mL | –
7 | O=C(Nc1ccc(Cl)c(C(F)(F)F)c1)Nc1cccc2ccc(NCc3ccccc3)cc12 | 140 nM | 12 ng·h/mL | –
8 | Nc1cc2c(NC(=O)Nc3ccc(Cl)c(C(F)(F)F)c3)cccc2cc1Cl | > 1000 nM | – | –
9 | O=C(Nc1ccc(Cl)c(C(F)(F)F)c1)Nc1ccc2ccc(O)cc2c1 | 130 nM | – | –
10 | O=C(Nc1ccc(Cl)c(C(F)(F)F)c1)Nc1ccccc1CCCO | 220 nM | – | –
11 | NS(=O)(=O)Cc1ccccc1NC(=O)Nc1ccc(Cl)c(C(F)(F)F)c1 | 460 nM | – | –
12 | NS(=O)(=O)c1ccc2cccc(NC(=O)Nc3ccc(Cl)c(C(F)(F)F)c3)c2c1 | 710 nM | – | –
13 | NCCc1ccccc1NC(=O)Nc1ccc(Cl)c(C(F)(F)F)c1 | > 1000 nM | – | –
14 | O=C(Nc1ccc(Cl)c(C(F)(F)F)c1)Nc1ccccc1CO | 330 nM | – | –

The next lines start with results.

Row | IC50 [1] | AUC [2] | Compound | other results
15 | 67 nM | 176 ng·h/mL | O=C(Nc1ccc(Cl)c(C(F)(F)F)c1)Nc1cccc2cc[nH]c12 | –
16 | 58 nM | – | Cc1nc2cccc(NC(=O)Nc3ccc(Cl)c(C(F)(F)F)c3)c2[nH]1 | –
17 | 18 nM | – | O=C(Nc1ccc(Cl)c(C(F)(F)F)c1)Nc1cccc2cc(O)ccc12 | –
18 | 34 nM | 217 ng·h/mL | Nc1ccc2cccc(NC(=O)Nc3ccc(Cl)c(C(F)(F)F)c3)c2c1 | –
19 | 45 nM | – | O=C(Nc1ccc(Cl)c(C(F)(F)F)c1)Nc1cccc2c(O)cccc12 | –
20 | 30 nM | 125 ng·h/mL | CNc1ccc2cccc(NC(=O)Nc3ccc(Cl)c(C(F)(F)F)c3)c2c1 | –
21 | 84 nM | – | O=C(Nc1ccc(Cl)c(C(F)(F)F)c1)Nc1cccc2ccc(C(=O)O)cc12 | –
22 | 87 nM | – | O=C(Nc1ccc(Cl)c(C(F)(F)F)c1)Nc1cccc2c1CC(CO)CC2 (racemic) | –
23 | 33 nM | 530 ng·h/mL | O=C(Nc1ccc(Cl)c(C(F)(F)F)c1)Nc1cccc2[nH]ccc12 | –
24 | 16 nM | – | Cc1cccc(NC(=O)Nc2ccc(Cl)c(C(F)(F)F)c2)c1CCO | –
25 | 56 nM | 374 ng·h/mL | O=C(Nc1ccc(Cl)c(C(F)(F)F)c1)Nc1ccccc1CCO | –
26 | 9.1 nM | – | O=C(Nc1ccc(Cl)c(C(F)(F)F)c1)Nc1cccc2ccc(O)c(F)c12 | –
27 | 93 nM | – | CC1CCc2cccc(NC(=O)Nc3ccc(Cl)c(C(F)(F)F)c3)c2C1 (racemic) | –
28 | 32 nM | – | O=C(Nc1ccc(Cl)c(C(F)(F)F)c1)Nc1cccc2nc(C(F)(F)F)[nH]c12 | –
